Assay results from patent publication US20090149458A1, “PYRROLO[3,2-d]PYRIMIDINE COMPOUNDS AND THEIR USE AS PI3 KINASE AND mTOR KINASE INHIBITORS” (Wyeth, priority 2007, published 2009).

Assays:
[1] = test system: acute lymphoblastic leukemia xenograft; details: NOS/SCID xenograft mouse model of acute lymphoblastic leukemia; Teachey et al, Blood 2006; cited from earlier work
[2] = target: PI3 Kinase γ (Homo sapiens, UniProt P48736); test: PI3K fluorescence polarization assay (PI3 Kinase γ); format: biochemical; details: 20 uM PIP2, 25 uM ATP
Procedure: Buffers: Reaction Buffer: 20 mM HEPES pH7.5, 2 mM MgCl2, 0.05% CHAPS, and 0.01% bME (added fresh); STOP/detection Buffer: 100 mM HEPES pH7.5, 4 mM EDTA, 0.05% CHAPS. STOCKS: ATP 20 mM in H2O; PIP2 (diC8, Echelon cat# P-4508) 1 mM in H2O MW=856.5; GST-murine GRP 1.5 mg/ml in 17% glycerol; Red detector probe-Echelon (TAMRA) 2.5 uM. Plate: Nunc 384 well black polypropylene fluor. Plate.
Assay: The assay is run by putting 9.5 ul of freshly diluted enzyme (in “reaction buffer”) per well, then 0.5 ul of diluted drug or DMSO mixing. Then 10 ul of substrate is added to start the reaction. The mixture is incubated 30-60 minutes, room temp, then stopped with 20 ul of stop/detector mix. The substrate solution, is 40 μM PIP2 and 50 uM ATP in reaction buffer. Addition of 10 ul of substrate to each well starts the reaction. This is 20 uM PIP2, 25 uM ATP final in reaction.
Stop/detector mix: 10 nM TAMRA detector, 40 nM GST-GRP in STOP/detection buffer. To stop reaction: add 20 ul Stop/detector mix per well and mix well. Wait 90-110 minutes before reading plate. Plates are read on Perkin-Elmer Envision plate readers with filters for Tamra. Keep Red probe solutions dark. This procedure is adapted from Echelon Biosciences Inc procedure for their PI3-Kinase fluorescence polarization activity Assay kit Product number K-1100.

[3] = target: T1, human TOR (Homo sapiens, UniProt P42345); test: human TOR kinase assay with purified enzyme, DELFIA format; format: biochemical; details: FLAG-TOR, 100 μM ATP, His6-S6K substrate;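 further: 2 h kinase reaction at room temperature, phosphorylation of S6K at T389 detected with a europium-labelled antibody after plate capture, DMSO vehicle as control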
T1 construct: FLAG

[4] = target: PI3 Kinase α (Homo sapiens, UniProt P42336); test: PI3K fluorescence polarization assay (PI3 Kinase α); format: biochemical; details: 20 uM PIP2, 25 uM ATP;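 further: enzyme reaction with inhibitor or DMSO control, 30–60 min at room temperature, stopped by EDTA, then TAMRA detector with GST-GRP fluorescence polarization read after 90–110 min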
Chain of PI3 Kinase α (P42336 whole entry): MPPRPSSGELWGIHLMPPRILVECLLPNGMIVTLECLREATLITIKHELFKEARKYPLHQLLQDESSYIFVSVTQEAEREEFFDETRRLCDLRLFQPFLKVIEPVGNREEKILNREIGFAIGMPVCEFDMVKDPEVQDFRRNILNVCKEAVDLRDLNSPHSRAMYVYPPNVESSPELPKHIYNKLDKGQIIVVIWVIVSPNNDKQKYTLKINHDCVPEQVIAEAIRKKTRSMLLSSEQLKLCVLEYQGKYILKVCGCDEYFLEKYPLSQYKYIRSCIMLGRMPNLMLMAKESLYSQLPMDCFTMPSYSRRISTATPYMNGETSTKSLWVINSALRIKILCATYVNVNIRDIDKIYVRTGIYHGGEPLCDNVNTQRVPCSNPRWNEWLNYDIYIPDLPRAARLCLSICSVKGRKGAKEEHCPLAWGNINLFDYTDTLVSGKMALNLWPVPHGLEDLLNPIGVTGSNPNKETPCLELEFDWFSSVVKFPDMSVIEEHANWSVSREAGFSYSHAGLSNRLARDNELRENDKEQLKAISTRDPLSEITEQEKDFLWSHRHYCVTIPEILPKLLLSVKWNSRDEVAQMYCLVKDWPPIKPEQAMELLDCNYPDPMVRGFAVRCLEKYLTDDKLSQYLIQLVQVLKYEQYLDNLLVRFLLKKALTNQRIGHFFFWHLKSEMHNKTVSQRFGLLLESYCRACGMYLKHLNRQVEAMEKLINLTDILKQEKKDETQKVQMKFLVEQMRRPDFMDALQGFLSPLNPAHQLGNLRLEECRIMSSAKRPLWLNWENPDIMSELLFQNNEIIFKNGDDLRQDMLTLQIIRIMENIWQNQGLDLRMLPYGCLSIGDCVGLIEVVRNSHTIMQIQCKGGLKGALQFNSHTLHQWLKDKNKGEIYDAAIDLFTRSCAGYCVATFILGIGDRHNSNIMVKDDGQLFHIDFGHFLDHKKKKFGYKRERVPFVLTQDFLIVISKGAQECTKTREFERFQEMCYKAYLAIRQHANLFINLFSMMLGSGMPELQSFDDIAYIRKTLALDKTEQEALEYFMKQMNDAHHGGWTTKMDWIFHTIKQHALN
Chain of PI3 Kinase α (P27986 whole entry partner): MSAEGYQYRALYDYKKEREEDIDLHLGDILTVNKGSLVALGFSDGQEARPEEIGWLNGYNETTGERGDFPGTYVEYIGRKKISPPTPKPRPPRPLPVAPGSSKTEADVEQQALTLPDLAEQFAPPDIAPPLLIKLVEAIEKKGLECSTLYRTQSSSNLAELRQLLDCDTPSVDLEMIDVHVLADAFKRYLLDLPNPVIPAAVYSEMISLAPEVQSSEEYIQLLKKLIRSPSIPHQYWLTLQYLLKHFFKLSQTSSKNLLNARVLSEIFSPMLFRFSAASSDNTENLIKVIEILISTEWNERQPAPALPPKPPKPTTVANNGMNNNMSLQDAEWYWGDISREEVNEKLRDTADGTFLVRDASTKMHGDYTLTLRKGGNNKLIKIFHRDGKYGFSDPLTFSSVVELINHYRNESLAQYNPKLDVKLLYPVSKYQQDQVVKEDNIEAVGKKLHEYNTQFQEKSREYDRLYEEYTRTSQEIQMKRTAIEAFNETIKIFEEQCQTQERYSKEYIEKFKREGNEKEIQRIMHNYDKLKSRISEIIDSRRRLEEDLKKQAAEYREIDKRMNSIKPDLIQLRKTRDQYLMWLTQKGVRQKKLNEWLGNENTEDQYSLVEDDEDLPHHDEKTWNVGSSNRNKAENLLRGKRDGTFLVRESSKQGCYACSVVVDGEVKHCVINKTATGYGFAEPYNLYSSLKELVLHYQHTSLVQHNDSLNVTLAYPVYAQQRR

Chain of PI3 Kinase γ (P48736 whole entry): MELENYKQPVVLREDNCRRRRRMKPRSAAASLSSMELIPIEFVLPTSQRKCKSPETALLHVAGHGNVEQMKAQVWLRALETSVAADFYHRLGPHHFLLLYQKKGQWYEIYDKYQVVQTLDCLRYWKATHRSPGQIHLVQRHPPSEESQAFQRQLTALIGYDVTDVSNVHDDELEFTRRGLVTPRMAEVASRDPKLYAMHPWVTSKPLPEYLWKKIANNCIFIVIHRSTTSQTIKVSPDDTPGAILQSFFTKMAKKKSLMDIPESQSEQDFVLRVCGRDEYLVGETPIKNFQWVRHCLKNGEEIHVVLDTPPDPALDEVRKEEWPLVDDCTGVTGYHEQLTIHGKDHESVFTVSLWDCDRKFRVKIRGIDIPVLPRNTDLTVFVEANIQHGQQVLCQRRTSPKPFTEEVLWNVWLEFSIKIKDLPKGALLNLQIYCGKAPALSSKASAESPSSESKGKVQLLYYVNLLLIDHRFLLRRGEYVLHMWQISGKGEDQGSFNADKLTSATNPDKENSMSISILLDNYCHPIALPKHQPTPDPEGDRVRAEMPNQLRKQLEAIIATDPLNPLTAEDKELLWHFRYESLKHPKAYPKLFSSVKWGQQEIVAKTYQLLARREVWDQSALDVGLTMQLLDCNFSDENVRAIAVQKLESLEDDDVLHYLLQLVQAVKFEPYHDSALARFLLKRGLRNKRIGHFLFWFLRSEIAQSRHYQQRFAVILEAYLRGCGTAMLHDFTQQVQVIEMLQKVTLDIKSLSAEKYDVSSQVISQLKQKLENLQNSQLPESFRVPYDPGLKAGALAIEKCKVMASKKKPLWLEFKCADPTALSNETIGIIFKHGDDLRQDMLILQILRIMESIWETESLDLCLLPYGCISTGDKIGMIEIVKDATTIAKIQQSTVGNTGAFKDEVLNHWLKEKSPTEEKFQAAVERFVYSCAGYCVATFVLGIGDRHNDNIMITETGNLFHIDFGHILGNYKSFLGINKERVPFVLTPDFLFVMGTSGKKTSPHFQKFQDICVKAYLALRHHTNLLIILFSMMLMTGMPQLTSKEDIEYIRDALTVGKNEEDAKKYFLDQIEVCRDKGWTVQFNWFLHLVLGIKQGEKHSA

IC50 [2] | IC50 [3] | IC50 [4] | Compound | activity in xenograft model [1]
– | – | – | CO[C@H]1C[C@@H]2CC[C@@H](C)[C@@](O)(O2)C(=O)C(=O)N2CCCC[C@H]2C(=O)O[C@H]([C@H](C)C[C@@H]2CC[C@@H](OC(=O)C(C)(CO)CO)[C@H](OC)C2)CC(=O)[C@H](C)/C=C(\C)[C@@H](O)[C@@H](OC)C(=O)[C@H](C)C[C@H](C)/C=C/C=C/C=C/1C [Torisel] | active
> 10000 nM | > 4000 nM | 6220 nM | O=C(NCCCO)Nc1cccc(-c2nc(N3CCOCC3)c3[nH]ccc3n2)c1 [Example 41, 1-(3-hydroxypropyl)-3-[3-(4-morpholin-4-yl-5H-pyrrolo[3,2-d]pyrimidin-2-yl)phenyl]urea] | –
132 nM | 1260 nM | 69 nM | Oc1cccc(-c2nc(N3CCOCC3)c3[nH]cc(C4CCN(Cc5ccc(F)nc5)CC4)c3n2)c1 [Example 39, 3-(7-{1-[(6-fluoropyridin-3-yl)methyl]piperidin-4-yl}-4-morpholin-4-yl-5H-pyrrolo[3,2-d]pyrimidin-2-yl)phenol] | –
1920 nM | 330 nM | 166 nM | Oc1cccc(-c2nc(N3CCOCC3)c3[nH]cc(C4CCN(Cc5ccccc5F)CC4)c3n2)c1 [Example 32, 3-{7-[1-(2-fluorobenzyl)piperidin-4-yl]-4-morpholin-4-yl-5H-pyrrolo[3,2-d]pyrimidin-2-yl}phenol] | –
6700 nM | 2000 nM | 424 nM | Oc1cccc(-c2nc(N3CCOCC3)c3[nH]cc(CN4CCN(c5ncccn5)CC4)c3n2)c1 [Example 20, 3-{4-morpholin-4-yl-7-[(4-pyrimidin-2-ylpiperazin-1-yl)methyl]-5H-pyrrolo[3,2-d]pyrimidin-2-yl}phenol] | –
3030 nM | > 4000 nM | 180 nM | Oc1cccc(-c2nc(N3CCOCC3)c3[nH]cc(CNCc4cccnc4)c3n2)c1 [Example 16, 3-(4-morpholin-4-yl-7-{[(pyridin-3-ylmethyl)amino]methyl}-5H-pyrrolo[3,2-d]pyrimidin-2-yl)phenol] | –
4980 nM | 220 nM | 2670 nM | CNC(=O)Nc1ccc(-c2nc(N3CCOCC3)c3[nH]ccc3n2)cc1 [Example 6, 1-methyl-3-[4-(4-morpholin-4-yl-5H-pyrrolo[3,2-d]pyrimidin-2-yl)phenyl]urea] | –
4280 nM | 11100 nM | 72 nM | OCc1cccc(-c2nc(N3CCOCC3)c3[nH]cc(CNCCN4CCCCC4)c3n2)c1 [Example 8, [3-(4-morpholin-4-yl-7-{[(2-piperidin-1-ylethyl)amino]methyl}-5H-pyrrolo[3,2-d]pyrimidin-2-yl)phenyl]methanol] | –
2680 nM | > 4000 nM | 2400 nM | COC(=O)Cn1ccc2nc(-c3cccc(CO)c3)nc(N3CCOCC3)c21 [Example 46, Methyl {2-[3-(hydroxymethyl)phenyl]-4-morpholin-4-yl-5H-pyrrolo[3,2-d]pyrimidin-5-yl}acetate] | –
443 nM | > 4000 nM | 950 nM | c1ccc(COc2cccc(-c3nc(N4CCOCC4)c4[nH]ccc4n3)c2)cc1 [Example 1, 2-[3-(benzyloxy)phenyl]-4-morpholin-4-yl-5H-pyrrolo[3,2-d]pyrimidine] | –
> 10000 nM | > 4000 nM | > 10000 nM | O=C(NCc1ccco1)Nc1cccc(-c2nc(N3CCOCC3)c3[nH]ccc3n2)c1 [Example 43, 1-(2-furylmethyl)-3-[3-(4-morpholin-4-yl-5H-pyrrolo[3,2-d]pyrimidin-2-yl)phenyl]urea] | –
792 nM | 960 nM | 111 nM | Oc1cccc(-c2nc(N3CCOCC3)c3[nH]cc(C4CCN(Cc5ccc[nH]5)CC4)c3n2)c1 [Example 33, 3-{4-morpholin-4-yl-7-[1-(1H-pyrrol-2-ylmethyl)piperidin-4-yl]-5H-pyrrolo[3,2-d]pyrimidin-2-yl}phenol] | –
1610 nM | 2750 nM | 297 nM | Oc1cccc(-c2nc(N3CCOCC3)c3[nH]cc(C4CCN(Cc5ccco5)CC4)c3n2)c1 [Example 27, 3-{7-[1-(2-furylmethyl)piperidin-4-yl]-4-morpholin-4-yl-5H-pyrrolo[3,2-d]pyrimidin-2-yl}phenol] | –
1900 nM | 3150 nM | 498 nM | CC(C)CN1CCC(c2c[nH]c3c(N4CCOCC4)nc(-c4cccc(O)c4)nc23)CC1 [Example 29, 3-[7-(1-isobutylpiperidin-4-yl)-4-morpholin-4-yl-5H-pyrrolo[3,2-d]pyrimidin-2-yl]phenol] | –
1370 nM | 460 nM | 120 nM | Oc1cccc(-c2nc(N3CCOCC3)c3[nH]cc(C4CCN(Cc5ccc(F)cc5Cl)CC4)c3n2)c1 [Example 34, 3-{7-[1-(2-chloro-4-fluorobenzyl)piperidin-4-yl]-4-morpholin-4-yl-5H-pyrrolo[3,2-d]pyrimidin-2-yl}phenol] | –
828 nM | 3750 nM | 484 nM | CN1CCC(c2c[nH]c3c(N4CCOCC4)nc(-c4cccc(O)c4)nc23)CC1 [Example 30, 3-[7-(1-methylpiperidin-4-yl)-4-morpholin-4-yl-5H-pyrrolo[3,2-d]pyrimidin-2-yl]phenol] | –
